Assay results taken from the OPERA property sets (Mansouri et al. 2018).

settings: not given

Structure (SMILES) | melting point [°C] | boiling point [°C] | log10 Henry constant (atm·m³/mol) | log10 vapour pressure (mmHg) | log10 Koc (L/kg) | ready biodegradability
CCC1(c2ccc(N)cc2)CCC(=O)NC1=O (centres undefined) | 150 | – | – | – | – | –
O=C(O)COc1ccccc1C(=O)O | 191 | – | – | – | – | –
Cc1ccc(CCC=O)cc1 | – | 223 | – | – | – | –
CCOC(CO)OCC | – | 167 | – | – | – | –
Cc1cccc(C(C)C)c1O | -14.5 | 226 | – | – | – | –
O=C(O)C(Br)Br | 49 | – | -8.35 | – | – | –
O=S1OCCO1 | -11 | 173 | – | – | – | –
BrCCCCCCBr | -2.3 | 246 | – | – | – | –
Cc1cc(O)c(Cl)cc1Cl | 73 | 234 | – | – | – | –
O=C(Cc1ccccc1)Cc1ccccc1 | 35 | 331 | – | -3.13 | – | –
CC(Cl)(Cl)C(=O)OCCOc1cc(Cl)c(Cl)cc1Cl | 49.5 | – | – | – | – | –
Cl[Si](Cl)(Cl)CCc1ccccc1 | – | 242 | – | – | – | –
CCCC=C(C)C | -130 | 95.4 | – | 1.73 | – | –
Clc1ccccc1-c1nnc(-c2ccccc2Cl)nn1 | 182 | – | – | -9.01 | 4.66 | –
CCC(C)(O)CCl (centres undefined) | – | 151 | – | – | – | –
CCCCCCCCCCCCNC(=O)C[N+](C)(C)Cc1ccccc1.[Cl-] | 148 | – | – | – | – | –
CSc1ccccc1 | – | 193 | – | -0.314 | – | –
CC(=O)c1ccccc1[N+](=O)[O-] | 28.5 | – | – | – | – | –
Nc1cccc(Cl)c1 | -10.4 | 230 | -6 | -1.18 | – | not readily biodegradable
FC(F)=C(F)C(F)=C(F)F | -132 | 6 | – | – | – | –

Structure (SMILES) | melting point [°C] | boiling point [°C] | log10 Henry constant (atm·m³/mol) | log10 vapour pressure (mmHg) | log10 Koc (L/kg) | ready biodegradability
CCCCSC#N | – | 186 | – | – | – | –
CC(C)CCON=O | – | 99.2 | – | – | – | –
CCS(=O)(=O)O | -17 | – | – | – | – | –
CCC=NO | 40 | 132 | – | – | – | –
CCCC(=O)CC | -55.5 | 124 | – | 1.14 | – | not readily biodegradable
Cc1cn([C@H]2C[C@H](F)[C@@H](CO)O2)c(=O)[nH]c1=O | 177 | – | – | – | – | –
ClCCCBr | -58.9 | 143 | – | 0.806 | – | not readily biodegradable
CCC(C)c1cccc(C(C)CC)c1O (centres undefined) | -42 | 258 | – | – | – | not readily biodegradable
c1ccc2c(c1)Nc1ccccc1O2 | 156 | – | – | – | – | –
CC1=CCCCC1 | – | 106 | – | 1.49 | – | –
CCC(=O)OC(C)(C)C | – | 118 | – | – | – | –
Cc1cc(C)c2ccccc2n1 | – | 265 | – | -2.1 | – | –
CCCC(C)(O)CC(C)C (centres undefined) | – | 171 | – | – | – | –
CC(=O)C(=O)CC(C)C | – | 138 | – | – | – | –
CCC(CC1CCCCC1)CC1CCCCC1 | – | 306 | – | – | – | –
FC(F)(F)C(F)(F)C(F)(F)F | -148 | -36.6 | – | 3.82 | – | –
COc1cc([C@@H]2c3cc4c(cc3[C@H](O)[C@H]3COC(=O)[C@@H]23)OCO4)cc(OC)c1OC | 206 | – | – | – | – | –
O=C(O)CNC(=O)c1ccccc1O | 168 | – | – | – | – | –
Cc1c(Cc2cc(C(C)(C)C)c(O)c(C(C)(C)C)c2)c(C)c(Cc2cc(C(C)(C)C)c(O)c(C(C)(C)C)c2)c(C)c1Cc1cc(C(C)(C)C)c(O)c(C(C)(C)C)c1 | 244 | – | – | – | – | not readily biodegradable

same assay, conditions: fish

Structure (SMILES) | log10 BCF | log10 biotransformation half-life (days)
CCCCCCc1ccc(-c2ccc(C#N)cc2)cc1 | 3.52 | 0.85
Nc1nc[nH]n1 | 0.49 | –
Cc1cc(Cc2cc(C)cc(C(C)(C)C)c2O)c(O)c(C(C)(C)C)c1 | 2.74 | 0.03
Nc1cccc(Cl)c1 | 0.35 | -0.71
CCC(C)c1cccc(C(C)CC)c1O (centres undefined) | 2.39 | -0.22
